Laboratory results taken from US20140135396A1, “Treatment of Acetaminophen-Induced Liver Damage by the Administration of Modulators of Nitric Oxide” (BETH ISRAEL DEACONESS MEDICAL CENTER, INC., priority 2011, published 2014).
Entries after “also recorded” stand apart in the source; their conditions may differ.

Tests used:
[1] = system: zebrafish embryos; experiment: Liver size in zebrafish embryos (lfabp in situ hybridization, lfabp:GFP); type: in vivo; settings: for liver size: other NO donors at optimal doses, alternative NOS inhibitor, inactive enantiomer, dose series; for liver size (in situ hybridization for lfabp and transferrin): 10 μM, exposure 24-72 hpf
Experimental: In order to identify regulators of liver formation a chemical genetic screen was conducted. Several of the chemicals identified by the screen were known to impact on NO signaling. Based on these initial observations, well-established modulators of NO signaling were secondarily screened for effects on liver formation. […] The contrasting effects of L-Arg and L-NAME on liver formation were confirmed by in vivo fluorescent microscopy of lfabp:GFP transgenic zebrafish. To quantify the phenotypic changes caused by NO signaling, the liver size (region of lfabp expression) of treated embryos were scored as large, medium or small. […]
To further characterize the role of NO signaling on liver formation, we studied the temporal requirements for NO signaling. Embryos were exposed to Deta (10 μM), L-Arg (10 μM) or L-NAME (10 μM) from 24-48 or 48-72 hpf at which point liver size was assessed. […] Exposure of embryos to L-Arg (10 μM) caused a subtle yet significant increase in the hepatic bud size at 36 hpf (region of hhex expression) in 26% of embryos, whereas L-NAME diminished hepatic bud size in 33% of embryos. […]

[2] = system: adult zebrafish; experiment: APAP-induced liver injury in adult zebrafish; type: in vivo; settings: for hepatic glutathione (GSH) / liver histology / overall survival compared to APAP alone: APAP 10 mM; for hepatic glutathione (GSH) / liver histology: GSNORi 1 μM and/or NAC 10 μM; for overall survival compared to APAP alone: adults, Deta 5 μM, GSNO 5 μM
Experimental: Having shown that GSNORi was hepatoprotective in APAP exposed larvae, we wanted to examine whether GSNORi remained effective in adult zebrafish. To visualise the hepatoprotective properties of GSNORi in vivo, adult casper lfabp:GFP transgenic fish were exposed to APAP (10 mM) in the presence or absence of GSNORi (1 μM) for 24 hr and examined 72 hpe by fluorescence microscopy. […] To gain a greater understanding of the hepatoprotective potential of GSNORi, survival studies were conducted in which adults were exposed to APAP (10 mM) in the presence or absence of GSNORi (1 μM) for 24 hr, followed by a 2-day recovery period in fresh water. […] The differences in survival were reflected in circulating ALT levels, which are used clinically to assess liver toxicity; peaking at 24 hpe with 196 U/L in APAP (10 mM) exposed fish and 55 U/L for fish exposed to APAP with GSNORi (1 μM).
Given that treatments for APAP-induced liver injury are provided after a considerable delay in the clinical setting, we wanted to determine whether GSNORi would remain hepatoprotective when treatment was delayed. In addition, we wanted to ascertain whether GSNORi could synergize with the clinical antidote NAC and extend the therapeutic window.

[3] = system: zebrafish embryos; experiment: Survival of zebrafish embryos exposed to a lethal dose of APAP; type: in vivo; settings: for survival: GSNORi 1 μM, NAC 10 μM; for survival compared to APAP alone: co-exposure 5 μM
Experimental: Having found a hepatoprotective effect of GSNORi in embryos exposed to a sublethal dose of APAP, we next examined whether GSNORi was able to enhance survival in embryos exposed to a lethal dose of APAP (10 mM).

[4] = system: lfabp:GFP embryos; experiment: APAP-induced liver injury in zebrafish larvae, sub-lethal dose (liver size, BrdU); type: in vivo; settings: for liver size: APAP 5 mM 48-60 hpf, treatment in recovery phase 60-96 hpf, L-NAME 10 μM, NAC 10 μM, GSNORi 1 μM; for liver size and survival after APAP exposure: summary, embryos and adults, co-exposure; for liver size / hepatoprotection: co-exposure model: APAP 5 mM concurrently with treatment 48-96 hpf, Deta 5 μM
Experimental: In order to examine the possible hepatoprotective effect of GSNORi in the context of acetaminophen (APAP) induced liver injury. Transgenic lfabp:GFP embryos were exposed to a sub-lethal dose of APAP (5 mM) from 48 to 60 hpf followed by treatment during the recovery phase (60-96 hpf) with L-NAME, GSNORi and/or NAC. […] In order to further investigate the proliferative effect of treatments following APAP induced liver injury, we examined BrdU incorporation during the recovery phase.

[5] = system: cloche embryos; experiment: Liver size in cloche mutant embryos lacking vasculature; type: in vivo, zebrafish; settings: for liver size in cloche embryos: summary statement
Source text: NO signaling can occur via 2 distinct mechanisms namely, cGMP-dependent vasodilation and S-nitrosylation pathways. In order to clarify the importance of the well-known vascular effects of NO, we examined the effect of chemical modulators of NO signaling in cloche mutants that have no endothelial cells and therefore lack any vasculature.

[6] = system: zebrafish embryos; experiment: Hepatic bud size in zebrafish embryos (hhex, foxA3, sid4 expression); type: in vivo
Experimental: To further characterize the role of NO signaling on liver formation, we studied the temporal requirements for NO signaling. Embryos were exposed to Deta (10 μM), L-Arg (10 μM) or L-NAME (10 μM) from 24-48 or 48-72 hpf at which point liver size was assessed. […] Exposure of embryos to L-Arg (10 μM) caused a subtle yet significant increase in the hepatic bud size at 36 hpf (region of hhex expression) in 26% of embryos, whereas L-NAME diminished hepatic bud size in 33% of embryos.
The expression pattern of an alternate hepatic progenitor marker prox1 corroborated that chemical modulators of NO signaling alter the size of the developing hepatic bud. […] These findings were verified by qPCR for hhex and foxA3.

[7] = system: lfabp:GFP embryos; experiment: Flow cytometric analysis of GFP+ hepatocytes in lfabp:GFP embryos; settings: GFP+ cells, compared to control
Source text: S-nitrosoglutathione reductase (GSNOR) is the major enzyme responsible for metabolizing S-nitrosothiols and is therefore a key negative regulator of S-nitrosylation pathways. We reasoned that by inhibiting GSNOR function we could stimulate S-nitrosothiol signaling and modulate liver formation.

[8] = system: Zebrafish; experiment: Liver regeneration after 1/3 partial hepatectomy in zebrafish; type: in vivo; settings: 10 μM
Source text: In order to determine whether the hepatoprotective and pro-regenerative effect of GSNOR inhibition was limited to APAP-induced liver injury, we determined the impact of exposure to GSNORi after ⅓ partial hepatectomy.

[9] = system: zebrafish embryos; experiment: Chemical genetic screen for effects on liver development in zebrafish embryos; type: in vivo; settings: lfabp:GFP fluorescence and lfabp in situ hybridization at 72 hpf
Experimental: The liver arises from anterior endodermal progenitor cells. Liver development can be divided into three stages, specification (18-24 hours post fertilization, hpf), budding/differentiation (24-72 hpf), and hepatic outgrowth (72-96 hpf). The various stages of liver development can be observed in the embryo by in situ hybridization for hhex (endodermal progenitors), foxA3 (differentiated endoderm) and liver fatty acid binding protein (lfabp, marker of hepatocytes).
In an effort to identify novel regulators of liver formation and homeostasis, a library of 2880 biologically active compounds (obtained from the ICCB at Harvard Medical School) was previously screened for global effects on liver development in zebrafish. Hepatogenesis was assessed in vivo using fluorescent reporter fish where the hepatocyte-specific lfabp promoter drives GFP expression. All embryos were imaged with fluorescence microscopy at 72 hpf, then fixed and subjected to in situ hybridization for lfabp to confirm the in vivo findings. Of the chemical treatments, 191 compounds (6.6%) increased, and 344 (11%) decreased liver formation.

[10] = system: NO production; experiment: NO production in vivo with fluorescent probe Cu(2)(FL2E); design: species or system zebrafish; settings: cell-trappable fluorescent probe Cu(2)(FL2E)
[11] = system: zebrafish embryos; experiment: Hepatic progenitor proliferation in zebrafish embryos (BrdU incorporation, pH3 staining); type: in vivo; settings: for BrdU incorporation (BrdU positive cells): developing hepatic bud; for staining for the mitotic marker pH3: treated embryos
[12] = system: zebrafish embryos; experiment: Effect on organs other than the liver in zebrafish embryos (in situ hybridization); type: in vivo; settings: 10 μM, 18 hpf until 72 hpf
Experimental: These findings were corroborated by qPCR for lfabp.
In order to examine the effect that NO signaling had on other endodermal organs including the pancreas and gut, embryos were exposed to Deta (10 μM) or L-NAME (10 μM) from 18 hpf until 72 hpf. Endodermal derived tissue, the exocrine pancreas and gut were stained by in situ hybridization for foxa3, trypsin and ifabp, respectively.

[13] = system: WT mice; experiment: APAP-induced liver injury in WT mice treated with GSNORi and/or NAC; type: in vivo; settings: APAP 300 mg/kg, treatment 2 hrs later, GSNORi 5 mg/kg, NAC 300 mg/kg
Experimental: To investigate this possibility, WT mice were injected with a sub-lethal dose of APAP (300 mg/kg) followed 2 hrs later by treatment with GSNORi (5 mg/kg) and/or NAC (300 mg/kg). Mice were sacrificed at 6 or 24 hr.

[14] = APAP 10 mM for 18 hr followed by delayed treatment, GSNORi 1 μM, NAC 10 μM
[15] = APAP 10 mM 48-96 hpf, co-exposure

## N=C(N)NCCC[C@@H](N)C(=O)O [D-Arg, D-Arginine]
[1]
  liver size: no effect on liver size

## CC(=O)Nc1ccc(O)cc1 [APAP, N-acetyl-p-aminophenol]
[2]; 24 hpe, APAP 10 mM ± GSNORi 1 μM
  circulating ALT: 196 U/L
[2]; [14]
  survival by 72 hpe: 57%
[2]; APAP 10 mM ± GSNORi 1 μM for 24 hr, 2-day recovery in fresh water
  survival by 72 hpe: 39%
[2]
  hepatic glutathione (GSH): dramatic reduction in hepatic glutathione (GSH)
  liver histology: hepatocyte necrosis and hemorrhaging
[2]; adult casper lfabp:GFP fish, APAP 10 mM ± GSNORi 1 μM for 24 hr, examined 72 hpe
  GFP fluorescence (fluorescence microscopy): reduction in GFP fluorescence
[3]; [15]
  survival: 4%
[4]
  liver size: dramatic decrease in liver size
  liver size and survival after APAP exposure: decrease in liver size and death

## CC(=O)NC(C(=O)O)C(C)(C)SN=O (racemic) [SNAP, S-Nitroso-N-Acetyl-D,L-Penicillamine]
[1]
  liver size: increase liver size

## N[C@@H](CCC(=O)N[C@@H](CSN=O)C(=O)NCC(=O)O)C(=O)O [GSNO, S-nitrosoglutathione]
[2]
  overall survival compared to APAP alone: enhanced overall survival
[5]; cloche mutants, GSNO 5 μM
  embryos with increased liver size: 46%
[5]
  liver size in cloche embryos: able to modulate liver size
[3]; APAP 10 mM
  survival compared to APAP alone: increased survival
[1]; GSNO 5 μM
  embryos with enhanced liver size: 40%

## COC(=O)[C@@H](N)CCCNC(=N)N[N+](=O)[O-] [L-NAME, L-N^G-Nitroarginine methyl ester]
[2]
  overall survival compared to APAP alone: exacerbated the loss in survival
[6]; L-NAME, 36 hpf
  embryos with diminished hepatic bud size (hhex): 33%
[6]; L-NAME, 48 hpf
  embryos with restricted hepatic bud size (foxA3 expression): 60%
[7]
  hepatocytes per embryo: decrease
[8]
  regenerative activity: complete cessation of regenerative activity
[9]
  liver size: smaller livers; also recorded: small liver
[5]; cloche mutants, L-NAME 10 μM
  embryos with a small liver: 40%
[5]
  liver size in cloche embryos: able to modulate liver size
[4]
  liver size: exacerbated
  liver size / hepatoprotection: exacerbated injury
  liver size and survival after APAP exposure: further decrease in liver size and more extensive loss in survival
[1]
  liver size (in situ hybridization for lfabp and transferrin): decrease in liver size
[1]; L-NAME 10 μM, 24-72 hpf
  embryos with diminished liver size: 62%
[10]
  NO in the developing endoderm: inhibited
[11]
  BrdU incorporation (BrdU positive cells): reduced the number of BrdU positive cells
  staining for the mitotic marker pH3: inhibited cell cycle progression
[12]
  size of other endodermal organs (foxa3, trypsin, ifabp): did not observably affect the size of other endodermal organs

## NCCN(CCN)/[N+]([O-])=N/O [Deta, Diethylenetriamine-NONOate]
[2]
  overall survival compared to APAP alone: enhanced overall survival
[6]; 10 μM
  region of hhex and foxA3 expression in the developing hepatic bud: increasing the region of hhex and foxA3 expression
[9]
  liver size: increase in liver size
[3]; APAP 10 mM
  survival compared to APAP alone: increased survival
[4]
  liver size / hepatoprotection: protected the liver
[1]
  liver size: increase liver size
[12]
  size of other endodermal organs (foxa3, trypsin, ifabp): did not observably affect the size of other endodermal organs

## N=C(N)NCCC[C@H](N)C(=O)O [L-Arg, L-Arginine]
[6]; L-Arg 10 μM, 36 hpf
  embryos with increase in hepatic bud size (region of hhex expression): 26%
[6]; L-Arg, 48 hpf
  embryos with increased hepatic bud size (foxA3 expression): 51%
[7]
  hepatocytes per embryo: increase in hepatocytes per embryo
[9]
  liver size: increase in liver size
[5]; cloche mutants, L-Arg 10 μM
  embryos with increased liver size: 37%
[1]
  liver size (in situ hybridization for lfabp and transferrin): dramatic increase in liver size
[1]; L-Arg 10 μM, 24-72 hpf, liver size scored large, medium or small
  embryos with a large liver: approximately 51%
[11]
  BrdU incorporation (BrdU positive cells): increase in BrdU positive cells
  staining for the mitotic marker pH3: increased hepatic proliferation

## CC(=O)N[C@@H](CS)C(=O)O [NAC, N-acetylcysteine]
[13]
  circulating ALT, % of the level of APAP alone: 43%
[13]; 6 and 24 hr
  histological evaluation of centrilobular necrosis: effective in preventing liver necrosis
[2]; [14]
  survival by 72 hpe: 80%
[2]
  hepatic glutathione (GSH): modulated
  liver histology: alleviated
[2]; following APAP injury
  cell proliferation (PCNA immunohistochemistry): modulated liver regeneration
[3]; [15]
  survival: 32%
[3]; APAP 10 mM, treatment given after a 12 hr delay
  survival: 15%

## NG-amino-L-Arginine [L-NMMA]
[1]
  liver size: decrease liver size in a dose-dependent manner
